Measured values from PubChem BioAssay (NCI).
Several values for one entry are separate records, joined by “and”; a condition that tells them apart may be missing. Equal values may be shown once.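 Dose response: 5 concentrations. Exposure: 48 h. Format: 96-well plates. Endpoint: linear interpolation; highest concentration if not reached. At the GI50, growth is halved. TGI marks complete inhibition of growth.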

Key:
Test in all cases: inhibition of tumour cell growth, NCI panel, 48 h
[1] = system: HCC-2998 colon
[2] = system: UO-31 renal
[3] = system: UACC-62 melanoma
[4] = system: CAKI-1 renal
[5] = system: OVCAR-3 ovarian
[6] = system: HCT-15 colon
[7] = system: MDA-MB-435
[8] = system: OVCAR-5 ovarian
[9] = system: MDA-MB-231 breast
[10] = system: SK-MEL-2 melanoma

| SMILES | TGI [1] | TGI [2] | TGI [3] | TGI [4] | TGI [5] | TGI [6] | TGI [7] | TGI [8] | TGI [9] | TGI [10] | GI50 [2] | GI50 [3] | GI50 [4] | GI50 [8] | GI50 [6] | GI50 [7] | GI50 [9] | GI50 [10] | GI50 [5] | GI50 [1] |
| --- | --- | --- | --- | --- | --- | --- | --- | --- | --- | --- | --- | --- | --- | --- | --- | --- | --- | --- | --- | --- |
| O=C(COC(=O)c1cccc2c(=O)c3ccccc3[nH]c12)Nc1ccc(Cl)cc1 | > 100 µM | > 100 µM | > 100 µM | > 100 µM | > 100 µM |  |  |  |  |  |  |  |  |  |  |  |  |  |  |  |
| C=C(C)C1CCC2=CC(CC3(C)OC3C3=CC(C(=O)OC)=C(C1)O3)OC2=O (configuration not stated) |  | > 100 µM |  | > 100 µM | > 100 µM | > 100 µM | > 100 µM | > 100 µM | > 100 µM | > 100 µM |  |  |  |  |  |  |  |  |  |  |
| CCOC(=O)/C(C#N)=C\Sc1ccccc1 |  | 24.1 µM | 42.3 µM | 65.9 µM | 39.2 µM |  |  | 58.6 µM |  | 74.3 µM |  |  |  |  |  |  |  |  |  |  |
| Cc1ccc(C)c(NC(=O)C(=O)C2C(=O)N(c3ccccc3)N=C2N)c1 (configuration not stated) | > 100 µM | > 100 µM | > 100 µM | > 100 µM | > 100 µM | > 100 µM |  | > 100 µM |  | > 100 µM |  |  |  |  |  |  |  |  |  |  |
| COc1cc(C2c3cc4c(cc3[C@@H](Nc3ccc([N+](=O)[O-])cc3)C3COC(=O)[C@H]23)OCO4)cc(OC)c1O (some centres not stated) | 7.01 µM | 8.76 µM | 8.31 µM | 0.941 µM and 5.06 µM | 17.3 µM | 19.6 µM | > 100 µM | 13.6 µM |  | 10.7 µM | 0.753 µM | 0.547 µM | 0.154 µM | 0.722 µM |  |  |  |  |  |  |
| CN(CCCN1C(=O)c2cccc3cc([N+](=O)[O-])cc(c23)C1=O)CCN(C)CCCN1C(=O)c2cccc3cc([N+](=O)[O-])cc(c23)C1=O | > 39.3 µM |  | > 39.3 µM | > 39.3 µM | > 39.3 µM | > 39.3 µM |  | > 39.3 µM |  | > 39.3 µM |  |  |  |  |  |  |  |  |  |  |
| C[C@]12CC(C=O)C(=O)C(O)=C1CC[C@@H]1C2CC[C@@]2(C)C1CC[C@]2(C)O (some centres not stated) | 31.1 µM | 51.1 µM | 36.5 µM |  | 64.7 µM | 60.8 µM |  | 32.6 µM |  | 26.6 µM |  |  |  |  |  |  |  |  |  |  |
| Cc1cc(Cl)ccc1N=C1NC(=O)C(CC(=O)Nc2cccc(C)c2C)S1 (configuration not stated) | 65.1 µM | 51.5 µM | 71.3 µM | 54.5 µM | > 100 µM | > 100 µM |  | > 100 µM |  | 46.9 µM |  |  |  |  |  |  |  |  |  |  |
| O=c1cc(-c2ccccc2)oc2cc(OCCCCCN3CCOCC3)cc(O)c12 | 8.38 µM | > 100 µM | > 100 µM |  | > 100 µM | > 100 µM | > 100 µM | 95.3 µM | 63.7 µM | 91.7 µM | 32.7 µM | 95.7 µM |  | 18.1 µM | 42 µM | > 100 µM | 15.6 µM | 25.4 µM | > 100 µM |  |
| Cc1c(NC(=O)Nc2c(Cl)cccc2Cl)c(=O)n(-c2ccccc2)n1C |  | > 100 µM | > 100 µM | > 100 µM | > 100 µM | > 100 µM | > 100 µM | > 100 µM | > 100 µM | > 100 µM |  |  |  |  |  |  |  |  |  |  |
| O=C1NC2(CCCCC2)C2CCCCC=C12 (configuration not stated) |  | > 100 µM | > 100 µM | > 100 µM | > 100 µM | > 100 µM |  | > 100 µM |  | > 100 µM |  |  |  |  |  |  |  |  |  |  |
| Cc1ccc(-c2c3c(nn2-c2ccc(S(=O)(=O)NC(=O)NC4CCCCC4)cc2)-c2ccccc2C3)cc1 |  | 2.64 µM | 32.2 µM | 41.8 µM | 35.7 µM | 47.7 µM | 41.4 µM | 70.3 µM | 43.2 µM | 32 µM | 1.33 µM | 16.9 µM | 18 µM | 29.2 µM | 16.1 µM | 19 µM | 21 µM | 16.8 µM | 17.7 µM |  |
| O=C(O)/C(Cl)=C(Cl)/C=N/NC(=O)c1cc2ccccc2cc1O |  | 6.36 µM | 14.6 µM | > 100 µM | > 100 µM | > 100 µM |  | 61.5 µM |  | 79.3 µM |  |  |  |  |  |  |  |  |  |  |
| COC(=O)c1ccc(C(=O)OC)c2nc3cc(Cl)ccc3nc12 | > 100 µM | > 100 µM | > 100 µM | > 100 µM | > 100 µM | > 100 µM |  | > 100 µM |  | > 100 µM |  |  |  |  |  |  |  |  |  |  |
| CCC[CH2][Sn]([CH2]CCC)([O]C(=O)c1cc(F)ccc1F)[O]C(=O)c1cc(F)ccc1F | 2.76 µM | 2.79 µM | 2.65 µM | 2.27 µM | 2.61 µM | 2.44 µM |  | 3.31 µM |  | 1.87 µM | 1.47 µM | 1.36 µM | 1.06 µM | 1.91 µM | 1.18 µM |  |  | 0.649 µM | 1.33 µM | 1.43 µM |
| Cn1c2c(c3ccccc3c1=O)C(=O)c1ccccc1-2 |  | > 100 µM | > 100 µM | > 100 µM | > 100 µM | > 100 µM | > 100 µM | > 100 µM | > 100 µM | > 100 µM |  |  |  |  |  |  |  |  |  |  |
| N#CC(C(=N/O)/C(=N\O)C(C#N)c1ccccc1)c1ccccc1 (configuration not stated) | > 100 µM | > 100 µM | > 100 µM |  | > 100 µM | > 100 µM |  | > 100 µM |  | > 100 µM |  |  |  |  |  |  |  |  |  |  |
| O=[N+]([O-])c1cccc(S(=O)(=O)N/N=C/c2cc(I)cc([N+](=O)[O-])c2O)c1 | > 100 µM | 67.5 µM | 45.2 µM | 50.9 µM | 43.9 µM | 65.5 µM |  | > 100 µM |  | 39 µM |  |  |  |  |  |  |  |  |  |  |
| Nn1c(-c2cccc(Cl)c2)nc2ccccc2c1=O | > 100 µM | > 100 µM | > 100 µM | > 100 µM | > 100 µM | > 100 µM |  | > 100 µM |  | > 100 µM |  |  |  |  |  |  |  |  |  |  |
| COc1ccc(/C=C\c2cc(OC)c(OC)c(OC)c2)cc1OC(=O)CC(N)C(=O)O (configuration not stated) | > 100 µM | 58.6 µM | > 100 µM |  | 0.00528 µM and 0.00484 µM and 0.0193 µM |  | 0.000316 µM | > 100 µM | 0.00404 µM | 0.00812 µM | 0.0017 µM | 0.000354 µM |  | 55.8 µM | 0.000452 µM |  | 0.00402 µM | 0.00151 µM and 0.00249 µM | 0.000506 µM | 0.0951 µM |
